Experimental data taken from ChEMBL document CHEMBL1201862, “PubChem BioAssay data set” (2004).
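Test compounds were applied to cells in 96-well plates for 48 hours at 5 doses. GI50: concentration for 50% inhibition of growth.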 Calls of active or inactive are those of the source. Rule as the data show it: active = GI50 up to about 1.1 µM and inactive = higher.

Tests used:
Assay in all cases: DTP human tumour cell line panel, 48 h
SN12C = test system: SN12C
IGROV-1 = test system: IGROV-1
NCI-H226 = test system: NCI-H226
SF-295 = test system: SF-295
NCI-H522 = test system: NCI-H522
SK-MEL-28 = test system: SK-MEL-28
EKVX = test system: EKVX
SK-MEL-5 = test system: SK-MEL-5
OVCAR-8 = test system: OVCAR-8
RPMI-8226 = test system: RPMI-8226
MOLT-4 = test system: MOLT-4
CAKI-1 = test system: CAKI-1
HCT-15 = test system: HCT-15
COLO 205 = test system: COLO 205
UACC-62 = test system: UACC-62
SF-268 = test system: SF-268
NCI-H460 = test system: NCI-H460
UO-31 = test system: UO-31
HCC 2998 = test system: HCC 2998
HL-60 = test system: HL-60

| SMILES | GI50 (SN12C) | GI50 (IGROV-1) | GI50 (NCI-H226) | GI50 (SF-295) | GI50 (NCI-H522) | GI50 (SK-MEL-28) | GI50 (EKVX) | GI50 (SK-MEL-5) | GI50 (OVCAR-8) | GI50 (RPMI-8226) | GI50 (MOLT-4) | GI50 (CAKI-1) | GI50 (HCT-15) [µM] | GI50 (COLO 205) | GI50 (UACC-62) | GI50 (SF-268) | GI50 (NCI-H460) | GI50 (UO-31) | GI50 (HCC 2998) | GI50 (HL-60) |
| --- | --- | --- | --- | --- | --- | --- | --- | --- | --- | --- | --- | --- | --- | --- | --- | --- | --- | --- | --- | --- |
| CCCCSCc1nc2nc(Cl)c(Cl)nc2[nH]1 | 22.1 µM (inactive) | 33.1 µM (inactive) | 33.7 µM (inactive) | 14.5 µM (inactive) | 17.8 µM (inactive) | 23 µM (inactive) | 33.3 µM (inactive) | 11.8 µM (inactive) | 34.9 µM (inactive) | 12.9 µM (inactive) | 19.5 µM (inactive) | 23.7 µM (inactive) | 23.4 | 21.3 µM (inactive) | 10.5 µM (inactive) | 35.6 µM (inactive) | 20.6 µM (inactive) |  |  |  |
| CC(=O)O[C@H]1CN(S(=O)(=O)c2ccc(C)cc2)C[C@@H]1C1CCCCC1 |  | 18.8 µM (inactive) | 16.7 µM (inactive) | 14.4 µM (inactive) |  | 20.5 µM (inactive) | 17 µM (inactive) | 10.6 µM (inactive) | 22.7 µM (inactive) | 33.1 µM (inactive) | 28.5 µM (inactive) | 45.8 µM (inactive) | 28.4 | 46.8 µM (inactive) | 22.6 µM (inactive) | 26.7 µM (inactive) | 31.7 µM (inactive) | 38.2 µM (inactive) | 45.6 µM (inactive) |  |
| CSc1nn(C)cc2ncnc1-2 | > 100 µM (inactive) | > 100 µM (inactive) | > 100 µM (inactive) | > 100 µM (inactive) |  | > 100 µM (inactive) | > 100 µM (inactive) | > 100 µM (inactive) | > 100 µM (inactive) | > 100 µM (inactive) | > 100 µM (inactive) | > 100 µM (inactive) | > 100 | > 100 µM (inactive) | > 100 µM (inactive) | > 100 µM (inactive) | > 100 µM (inactive) | > 100 µM (inactive) |  | > 100 µM (inactive) |
| CC(=O)NC1=C(NC(C)(C)C)C(=O)c2ccccc2C1=O | 18.2 µM (inactive) | 30.2 µM (inactive) | 14.5 µM (inactive) | 42.7 µM (inactive) |  | 25.4 µM (inactive) | 28.2 µM (inactive) | 18.2 µM (inactive) | 20.3 µM (inactive) | 11.7 µM (inactive) | 6.43 µM (inactive) | 16.1 µM (inactive) | 17.3 | 83.4 µM (inactive) | 13.7 µM (inactive) | 26.9 µM (inactive) | 19.2 µM (inactive) | 18.2 µM (inactive) | > 100 µM (inactive) | 2.23 µM (inactive) |
| COc1ccc(/C=N/NC(=O)c2ccccc2Nc2ccccc2C(=O)N/N=C/c2ccc(OC)cc2)cc1 | > 100 µM (inactive) | > 100 µM (inactive) | > 100 µM (inactive) | > 100 µM (inactive) |  | > 100 µM (inactive) | > 100 µM (inactive) | > 100 µM (inactive) | > 100 µM (inactive) | > 100 µM (inactive) | > 100 µM (inactive) | > 100 µM (inactive) | > 100 | > 100 µM (inactive) | > 100 µM (inactive) | > 100 µM (inactive) | > 100 µM (inactive) | > 100 µM (inactive) | > 100 µM (inactive) |  |
| COc1c(Cl)nc2ccccc2c1N=[N+]=[N-] | 92 µM (inactive) | 49.5 µM (inactive) |  | > 100 µM (inactive) |  | > 100 µM (inactive) |  | 40.5 µM (inactive) |  | 95.7 µM (inactive) | 19.2 µM (inactive) | 49.4 µM (inactive) |  | > 100 µM (inactive) | 54.2 µM (inactive) | 28.7 µM (inactive) | > 100 µM (inactive) | 17.3 µM (inactive) | > 100 µM (inactive) | 53.3 µM (inactive) |
| CN(Cc1cnc2c(N)nc(N)nc2n1)c1ccc(Cl)cc1 | > 100 µM (inactive) | 13.7 µM (inactive) | 1.91 µM (inactive) | 72.1 µM (inactive) |  |  | > 100 µM (inactive) | > 100 µM (inactive) | 21.5 µM (inactive) | > 100 µM (inactive) | > 100 µM (inactive) | > 100 µM (inactive) | 71.6 | > 100 µM (inactive) | 24.4 µM (inactive) | 33.6 µM (inactive) | 42.5 µM (inactive) | 47.1 µM (inactive) |  | > 100 µM (inactive) |
| COc1ccc(C(=O)N2CCc3c([nH]c4ccccc34)C2C(=O)O)o1 (centres undefined) | > 10 µM (inactive) | > 10 µM (inactive) |  | > 10 µM (inactive) |  | > 10 µM (inactive) | > 10 µM (inactive) | > 10 µM (inactive) | > 10 µM (inactive) | > 10 µM (inactive) | > 10 µM (inactive) | > 10 µM (inactive) | > 10 | > 10 µM (inactive) | > 10 µM (inactive) | > 10 µM (inactive) |  |  | > 10 µM (inactive) | > 10 µM (inactive) |
| COC(=O)CP1(=O)OC2C(C3CCC2(C)C3(C)C)N1c1cc(C(F)(F)F)cc(C(F)(F)F)c1 (centres undefined) |  | 45.7 µM (inactive) | 31.6 µM (inactive) | 19.7 µM (inactive) |  | 42.9 µM (inactive) | 30.5 µM (inactive) | 36.3 µM (inactive) | 36.1 µM (inactive) | 15.9 µM (inactive) | 16.7 µM (inactive) | 24.9 µM (inactive) | 24.4 | 24 µM (inactive) | > 100 µM (inactive) | 23 µM (inactive) | 22.2 µM (inactive) | 32.9 µM (inactive) | 22.9 µM (inactive) |  |
| Nc1ncnc2c1nnn2C1C=CC(CP(=O)(O)O)C1 (centres undefined) | > 100 µM (inactive) | > 100 µM (inactive) | > 100 µM (inactive) | > 100 µM (inactive) |  | > 100 µM (inactive) | > 100 µM (inactive) | > 100 µM (inactive) | > 100 µM (inactive) | > 100 µM (inactive) | > 100 µM (inactive) |  | > 100 | > 100 µM (inactive) | > 100 µM (inactive) | > 100 µM (inactive) | > 100 µM (inactive) | > 100 µM (inactive) | > 100 µM (inactive) | > 100 µM (inactive) |
| COc1cc(C(=O)C2C(=O)c3ccccc3C2C2(O)c3ccccc3CC2C(O)c2cc(OC)c(OC)c(OC)c2)cc(OC)c1OC (centres undefined) | > 100 µM (inactive) | > 100 µM (inactive) | > 100 µM (inactive) | 74.6 µM (inactive) |  | > 100 µM (inactive) | > 100 µM (inactive) | > 100 µM (inactive) | 62.4 µM (inactive) | 15.2 µM (inactive) | > 100 µM (inactive) | > 100 µM (inactive) | > 100 | > 100 µM (inactive) | > 100 µM (inactive) | 91.4 µM (inactive) | > 100 µM (inactive) | > 100 µM (inactive) | > 100 µM (inactive) |  |
| C=CCC1C2CCC(O[Si](C(C)C)(C(C)C)C(C)C)(C(C(=O)OC)C2)C1O (centres undefined) | > 100 µM (inactive) | 69.2 µM (inactive) | > 100 µM (inactive) | 23.4 µM (inactive) |  | 65.8 µM (inactive) | 22.4 µM (inactive) | 53 µM (inactive) | > 100 µM (inactive) | 72.6 µM (inactive) | 35.2 µM (inactive) | > 100 µM (inactive) | 77.3 | > 100 µM (inactive) | 55.2 µM (inactive) | > 100 µM (inactive) | 61.8 µM (inactive) | 49.2 µM (inactive) |  | 13.3 µM (inactive) |
| COC(=O)CC(C(C(=O)OCc1ccccc1)C(C)O)N1C(=O)OCC1c1ccccc1 (centres undefined) | > 100 µM (inactive) | 69.3 µM (inactive) | 31.6 µM (inactive) | 45 µM (inactive) |  | > 100 µM (inactive) | 62.1 µM (inactive) | 42.3 µM (inactive) | 91.6 µM (inactive) | 27.6 µM (inactive) | 29.4 µM (inactive) |  | > 100 | 48.4 µM (inactive) | 35.6 µM (inactive) | 97.5 µM (inactive) | 68.2 µM (inactive) | 24.3 µM (inactive) | > 100 µM (inactive) | 34.2 µM (inactive) |
| Brc1ccc2c(-c3csc(-c4c[nH]c5cc(Br)ccc45)n3)c[nH]c2c1 | 37 µM (inactive) | 17 µM (inactive) | 30.5 µM (inactive) | 9.31 µM (inactive) |  | 46.6 µM (inactive) | 35.3 µM (inactive) | 42.2 µM (inactive) | 21 µM (inactive) | 17.6 µM (inactive) | 12.1 µM (inactive) | 43.6 µM (inactive) | 12.4 | 26.8 µM (inactive) | 40.5 µM (inactive) | 31.2 µM (inactive) | 18.9 µM (inactive) | 55.3 µM (inactive) | 43.8 µM (inactive) | 5.69 µM (inactive) |
| CCCC(=O)Oc1cc(OC(=O)CCC)c2c(C)cc(=O)oc2c1 | > 100 µM (inactive) | 44.1 µM (inactive) | 87.7 µM (inactive) | 78.7 µM (inactive) |  | > 100 µM (inactive) | > 100 µM (inactive) | 67.9 µM (inactive) | 75.7 µM (inactive) | 32.2 µM (inactive) | 29 µM (inactive) |  | > 100 | 40 µM (inactive) | 66.1 µM (inactive) | > 100 µM (inactive) |  | 39.6 µM (inactive) |  |  |
| COc1cc2cc(C(=O)N3CC(CCl)c4c3cc(NC(=O)OCc3ccc([N+](=O)[O-])cc3)c3ccccc43)[nH]c2c(OC)c1OC (centres undefined) | > 100 µM (inactive) | > 43.9 µM (inactive) | > 100 µM (inactive) | 17.2 µM (inactive) |  | > 100 µM (inactive) | 43 µM (inactive) | 46.7 µM (inactive) | 1.1 µM (active) | 13.3 µM (inactive) | 9.73 µM (inactive) | 0.153 µM (active) | > 50.2 | > 100 µM (inactive) | > 38 µM (inactive) | 24.6 µM (inactive) | < 0.0173 µM (active) | 0.125 µM (active) | 0.0226 µM (active) | 0.11 µM (active) |
